Measured values published in patent US11123337B2, “4-methylsulfonyl-substituted piperidine urea compounds” (MYOKARDIA, INC., priority 2015, dated 2021).
Counter-ions that a name gives are not always drawn.

Key:
[1] = tested on: adult rat ventricular myocytes; test: Cardiomyocyte contractility assay (IonOptix edge detection, fractional shortening); format: cell-based; settings: 1 Hz pacing; for Activity at 1.0 uM (fractional shortening activation over basal): 1.0 uM compound; for Activity at 3.0 uM (fractional shortening activation over basal): 3.0 uM compound; for Activity at 10 uM (fractional shortening activation over basal): 10 uM compound
Description: Contractility of adult rat ventricular myocytes is determined by edge detection with an IonOptix contractility system. Aliquots of myocytes in Tyrode buffer (137 mM NaCl, 3.7 mM KCl, 0.5 mM MgCl2, 1.5 mM CaCl2), 4 mM HEPES, 11 mM glucose) are placed in a perfusion chamber (Series 20 RC-27NE; Warner Instruments), allowed to adhere to the coverslip, and then perfused with 37° C. Tyrode buffer. Myocytes are filed stimulated at 1 Hz and 10V. Only myocytes with clear striations, quiescent prior to pacing, with a cell length of 120-180 microns, a basal fractional shortening equal to 3-8% of the cell length, and a contraction velocity greater than 100 microns per second are used for contractility experiments. To determine the response to compounds, myocytes are first perfused for 60 seconds with Tyrodes buffer followed by 5 minutes of compound and a 140 second washout with Tyrodes buffer. Data is continuously recorded using IonOptix software. Contractility data is analyzed using Ionwizard software (IonOptix). For each cell, 10-20 contractility transients were averaged and compared under basal (no compound) and compound-treated conditions. Compound activity is measured by effects on fractional shortening (FS), where fractional shortening is the ratio of the peak length of the cell at contraction divided by the basal cell length normalized to 100% for an untreated cell.

bovine cardiac myosin = bovine cardiac myosin (Bos taurus, UniProt Q9BE39); test: Myosin activation assay (PK/LDH-coupled ATPase, bovine cardiac myofibrils); format: biochemical; settings: AC20 = concentration at which total response is increased by twenty percent
Sequence of bovine cardiac myosin (Q9BE39 whole entry): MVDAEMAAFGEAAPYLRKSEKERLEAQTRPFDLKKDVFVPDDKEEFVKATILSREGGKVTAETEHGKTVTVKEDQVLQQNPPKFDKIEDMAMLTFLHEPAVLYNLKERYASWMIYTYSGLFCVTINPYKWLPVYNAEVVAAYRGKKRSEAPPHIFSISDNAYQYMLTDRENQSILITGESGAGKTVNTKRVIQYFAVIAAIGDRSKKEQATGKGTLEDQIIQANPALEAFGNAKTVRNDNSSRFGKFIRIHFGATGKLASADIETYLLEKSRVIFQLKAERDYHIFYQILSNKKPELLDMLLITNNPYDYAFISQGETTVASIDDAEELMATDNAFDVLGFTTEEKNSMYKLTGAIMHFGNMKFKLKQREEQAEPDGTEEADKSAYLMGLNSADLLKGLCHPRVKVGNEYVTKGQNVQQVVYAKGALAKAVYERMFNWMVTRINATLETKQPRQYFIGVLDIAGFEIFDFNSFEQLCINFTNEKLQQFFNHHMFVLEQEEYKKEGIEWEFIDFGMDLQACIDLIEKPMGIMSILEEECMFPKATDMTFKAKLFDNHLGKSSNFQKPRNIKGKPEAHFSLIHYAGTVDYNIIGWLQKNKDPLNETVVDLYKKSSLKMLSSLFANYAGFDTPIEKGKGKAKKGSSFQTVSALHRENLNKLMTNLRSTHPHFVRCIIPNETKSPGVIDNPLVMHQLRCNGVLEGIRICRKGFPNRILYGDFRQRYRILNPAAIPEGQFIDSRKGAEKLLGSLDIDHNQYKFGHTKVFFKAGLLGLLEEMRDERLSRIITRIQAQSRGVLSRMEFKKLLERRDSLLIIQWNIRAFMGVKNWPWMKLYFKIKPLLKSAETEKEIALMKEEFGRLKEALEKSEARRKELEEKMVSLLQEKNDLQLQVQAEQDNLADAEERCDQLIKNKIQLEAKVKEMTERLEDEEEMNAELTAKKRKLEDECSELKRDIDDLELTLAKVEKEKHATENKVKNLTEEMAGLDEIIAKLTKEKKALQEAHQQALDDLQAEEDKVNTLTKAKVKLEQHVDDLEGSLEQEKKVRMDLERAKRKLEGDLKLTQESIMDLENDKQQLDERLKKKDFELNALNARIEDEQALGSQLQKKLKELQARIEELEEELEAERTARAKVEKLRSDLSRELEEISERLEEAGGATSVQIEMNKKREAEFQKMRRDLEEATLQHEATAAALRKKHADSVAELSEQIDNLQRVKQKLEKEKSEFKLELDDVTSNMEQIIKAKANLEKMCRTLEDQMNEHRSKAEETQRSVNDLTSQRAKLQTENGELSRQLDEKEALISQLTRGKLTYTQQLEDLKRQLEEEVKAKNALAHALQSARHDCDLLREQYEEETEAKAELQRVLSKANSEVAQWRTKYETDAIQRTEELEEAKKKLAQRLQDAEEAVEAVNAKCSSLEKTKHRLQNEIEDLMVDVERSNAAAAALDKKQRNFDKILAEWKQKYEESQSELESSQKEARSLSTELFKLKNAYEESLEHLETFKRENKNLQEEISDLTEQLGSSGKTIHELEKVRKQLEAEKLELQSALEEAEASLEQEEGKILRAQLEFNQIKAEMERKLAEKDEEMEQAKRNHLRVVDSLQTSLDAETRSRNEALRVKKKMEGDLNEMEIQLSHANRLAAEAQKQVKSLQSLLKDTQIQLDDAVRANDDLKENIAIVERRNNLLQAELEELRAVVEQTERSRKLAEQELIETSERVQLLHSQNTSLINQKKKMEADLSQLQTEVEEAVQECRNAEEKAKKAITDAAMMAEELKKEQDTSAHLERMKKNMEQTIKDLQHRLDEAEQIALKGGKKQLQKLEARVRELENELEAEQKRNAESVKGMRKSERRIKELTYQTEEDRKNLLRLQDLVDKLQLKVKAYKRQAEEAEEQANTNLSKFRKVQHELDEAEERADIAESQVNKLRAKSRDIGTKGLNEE
Sequence of bovine cardiac myosin (P85100 whole entry partner): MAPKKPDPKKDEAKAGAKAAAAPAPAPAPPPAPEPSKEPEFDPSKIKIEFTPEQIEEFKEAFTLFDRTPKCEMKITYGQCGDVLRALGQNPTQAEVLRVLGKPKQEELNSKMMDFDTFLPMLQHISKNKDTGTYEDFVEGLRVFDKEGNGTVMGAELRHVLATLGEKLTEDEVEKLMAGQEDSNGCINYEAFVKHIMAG
Sequence of bovine cardiac myosin (Q3SZE5 whole entry partner): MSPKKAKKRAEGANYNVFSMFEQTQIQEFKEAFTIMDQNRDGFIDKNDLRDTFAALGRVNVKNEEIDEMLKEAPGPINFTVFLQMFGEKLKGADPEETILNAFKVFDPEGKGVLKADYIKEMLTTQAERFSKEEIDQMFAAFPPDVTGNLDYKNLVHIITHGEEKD
In short: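 Values are the concentrations raising the ATPase rate by 20% or 50% over DMSO, from 10-point dose responses fitted with four parameters. Rate is NADH loss at 340 nm via PK/LDH coupling, read 15 min at room temperature, in pH 6.8 PIPES with 50 μM ATP. Bovine cardiac myofibrils were held at pCa ~6 or pCa 10.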

| SMILES | Activity at 1.0 uM (fractional shortening activation over basal) [1] | Myosin Activation (AC20) (bovine cardiac myosin) | Activity at 3.0 uM (fractional shortening activation over basal) [1] | Activity at 10 uM (fractional shortening activation over basal) [1] |
| --- | --- | --- | --- | --- |
| Cn1nc(C(F)(F)F)cc1S(=O)(=O)[C@@](C)(F)C1CCN(C(=O)Nc2ccon2)CC1 [Compound 18, (R)-4-(1-Fluoro-1-((1-methyl-3-(trifluoromethyl)-1H-pyrazol-5-yl)sulfonyl)ethyl)-N-(isoxazol-3-yl)piperidine-1-carboxamide] | +++ (+++ represents fractional shortening activation values greater than 50% over basal) | +++ (+++ represents myosin activation value AC20 < 2 μM) | – | – |
| Cn1cc(S(=O)(=O)[C@@](C)(F)C2CCN(C(=O)Nc3ccon3)CC2)c(C(F)F)n1 [Compound 20, (R)-4-(1-((3-(Difluoromethyl)-1-methyl-1H-pyrazol-4-yl)sulfonyl)-1-fluoroethyl)-N-(isoxazol-3-yl)piperidine-1-carboxamide] | + (+ represents fractional shorting activation <20% over basal) | +++ (+++ represents myosin activation value AC20 < 2 μM) | ++ (++ represents fractional shorting activation values from 20% to 50% over basal) | – |
| Cn1nc(Cl)cc1S(=O)(=O)C(C)(C)C1CCN(C(=O)Nc2ccon2)CC1 [Compound 129, 4-(2-((3-chloro-1-methyl-1H-pyrazol-5-yl)sulfonyl)propan-2-yl)-N-(isoxazol-3-yl)piperidine-1-carboxamide] | – | +++ (+++ represents myosin activation value AC20 < 2 μM) | +++ (+++ represents fractional shortening activation values greater than 50% over basal) | – |
| O=C(Nc1ccnnc1)N1CCC(C(F)(F)S(=O)(=O)c2cccc(F)c2)CC1 [Compound 5, 4-(Difluoro((3-fluorophenyl)sulfonyl)methyl)-N-(pyridazin-4-yl)piperidine-1-carboxamide] | ++ (++ represents fractional shorting activation values from 20% to 50% over basal) | ++ (++ represents myosin activation value AC20 from 2 μM-5 μM) | – | +++ (+++ represents fractional shortening activation values greater than 50% over basal) |
| C[C@](F)(C1CCN(C(=O)Nc2ccnc(CO)c2)CC1)S(=O)(=O)c1cccc(F)c1 [Compound 287, (R)-4-(1-fluoro-1-((3-fluorophenyl)sulfonyl)ethyl)-N-(2-(hydroxymethyl)pyridin-4-yl)piperidine-1-carboxamide] | ++ (++ represents fractional shorting activation values from 20% to 50% over basal) | +++ (+++ represents myosin activation value AC20 < 2 μM) | ++ (++ represents fractional shorting activation values from 20% to 50% over basal) | – |
| CC(F)(C1CCN(C(=O)Nc2ccnnc2)CC1)S(=O)(=O)c1cccc(F)c1 (stereo not drawn) [Compound 6, 4-(1-Fluoro-1-((3-fluorophenyl)sulfonyl)ethyl)-N-(pyridazin-4-yl)piperidine-1-carboxamide trifluoroacetic acid salt] | – | ++ (++ represents myosin activation value AC20 from 2 μM-5 μM) | – | ++ (++ represents fractional shorting activation values from 20% to 50% over basal) |
| Cn1cc(S(=O)(=O)C(C)(C)C2CCN(C(=O)Nc3ccon3)CC2)c(C(F)F)n1 [Compound 149, 4-(2-((3-(difluoromethyl)-1-methyl-1H-pyrazol-4-yl)sulfonyl)propan-2-yl)-N-(isoxazol-3-yl)piperidine-1-carboxamide] | – | ++ (++ represents myosin activation value AC20 from 2 μM-5 μM) | ++ (++ represents fractional shorting activation values from 20% to 50% over basal) | – |
| CC(C)(C1CCN(C(=O)Nc2ccncc2)CC1)S(=O)(=O)c1cccc(F)c1 [Compound 32, 4-(2-((3-fluorophenyl)sulfonyl)propan-2-yl)-N-(pyridin-4-yl)piperidine-1-carboxamide] | ++ (++ represents fractional shorting activation values from 20% to 50% over basal) | +++ (+++ represents myosin activation value AC20 < 2 μM) | – | – |
| CCn1nccc1S(=O)(=O)C(C)(C)C1CCN(C(=O)Nc2ccncc2)CC1 [Compound 184, 4-(2-((1-ethyl-1H-pyrazol-5-yl)sulfonyl)propan-2-yl)-N-(pyridin-4-yl)piperidine-1-carboxamide] | – | ++ (++ represents myosin activation value AC20 from 2 μM-5 μM) | – | – |
| Cc1cc(S(=O)(=O)C(F)(F)C2CCN(C(=O)Nc3ccnnc3)CC2)n(C)n1 [Compound 23, 4-(((1,3-Dimethyl-1H-pyrazol-5-yl)sulfonyl)difluoromethyl)-N-(pyridazin-4-yl)piperidine-1-carboxamide] | – | ++ (++ represents myosin activation value AC20 from 2 μM-5 μM) | – | – |
| Cn1cc(S(=O)(=O)[C@](C)(F)C2CCN(C(=O)Nc3ccc(F)nc3)CC2)c(C(F)F)n1 [Compound 257, (S)-4-(1-((3-(difluoromethyl)-1-methyl-1H-pyrazol-4-yl)sulfonyl)-1-fluoroethyl)-N-(6-fluoropyridin-3-yl)piperidine-1-carboxamide] | – | + (+ represents myosin activation value AC20 > 5 μM) | – | – |
| O=C(Nc1ccnnc1)N1CCC(C(F)(F)S(=O)(=O)c2ccc(N3CCC3)nc2)CC1 [Compound 67, 4-(((6-(azetidin-1-yl)pyridin-3-yl)sulfonyl)difluoromethyl)-N-(pyridazin-4-yl)piperidine-1-carboxamide] | – | ++ (++ represents myosin activation value AC20 from 2 μM-5 μM) | – | – |
| CC(C)(C1CCN(C(=O)Nc2ccnnc2)CC1)S(=O)(=O)c1cc(F)cc(F)c1 [Compound 169, 4-(2-((3,5-difluorophenyl)sulfonyl)propan-2-yl)-N-(pyridazin-4-yl)piperidine-1-carboxamide] | – | +++ (+++ represents myosin activation value AC20 < 2 μM) | – | – |
| Cn1cc(NC(=O)N2CCC(C(C)(C)S(=O)(=O)c3cccc(F)c3)CC2)cn1 [Compound 139, 4-(2-((3-fluorophenyl)sulfonyl)propan-2-yl)-N-(1-methyl-1H-pyrazol-4-yl)piperidine-1-carboxamide] | – | + (+ represents myosin activation value AC20 > 5 μM) | – | – |
| CC(F)(C1CCN(C(=O)Nc2ccnnc2)CC1)S(=O)(=O)c1ccccc1C(F)(F)F (stereo not drawn) [Compound 57, 4-(1-fluoro-1-((2-(trifluoromethyl)phenyl)sulfonyl)ethyl)-N-(pyridazin-4-yl)piperidine-1-carboxamide] | – | ++ (++ represents myosin activation value AC20 from 2 μM-5 μM) | – | – |
| Cn1cc(S(=O)(=O)C(F)(F)C2CCN(C(=O)Nc3ccon3)CC2)c(C(F)F)n1 [Compound 82, 4-(((3-(difluoromethyl)-1-methyl-1H-pyrazol-4-yl)sulfonyl)difluoromethyl)-N-(isoxazol-3-yl)piperidine-1-carboxamide] | – | + (+ represents myosin activation value AC20 > 5 μM) | – | – |
| COc1ccccc1S(=O)(=O)C(F)(F)C1CCN(C(=O)Nc2ccnnc2)CC1 [Compound 62, 4-(difluoro((2-methoxyphenyl)sulfonyl)methyl)-N-(pyridazin-4-yl)piperidine-1-carboxamide] | – | + (+ represents myosin activation value AC20 > 5 μM) | – | – |
| C[C@@H](O)c1cc(NC(=O)N2CCC(C(F)(F)S(=O)(=O)c3cccc(F)c3)CC2)ccn1 [Compound 98, (R)-4-(difluoro((3-fluorophenyl)sulfonyl)methyl)-N-(2-(1-hydroxyethyl)pyridin-4-yl)piperidine-1-carboxamide] | – | + (+ represents myosin activation value AC20 > 5 μM) | – | – |
| Cn1nc(C(F)F)cc1S(=O)(=O)C(C)(C)C1CCN(C(=O)Nc2ccnc(F)c2)CC1 [Compound 105, 4-(2-((3-(difluoromethyl)-1-methyl-1H-pyrazol-5-yl)sulfonyl)propan-2-yl)-N-(2-fluoropyridin-4-yl)piperidine-1-carboxamide] | – | +++ (+++ represents myosin activation value AC20 < 2 μM) | – | – |
| Cn1cc(S(=O)(=O)C(C)(F)C2CCN(C(=O)Nc3ccnnc3)CC2)c(C(F)(F)F)n1 (stereo not drawn) [Compound 281, 4-(1-fluoro-1-((1-methyl-3-(trifluoromethyl)-1H-pyrazol-4-yl)sulfonyl)ethyl)-N-(pyridazin-4-yl)piperidine-1-carboxamide] | – | ++ (++ represents myosin activation value AC20 from 2 μM-5 μM) | – | – |
| C[C@@](F)(C1CCN(C(=O)Nc2ccon2)CC1)S(=O)(=O)c1ccc(OC(F)F)nc1 [Compound 311, (S)-4-(1-((6-(difluoromethoxy)pyridin-3-yl)sulfonyl)-1-fluoroethyl)-N-(isoxazol-3-yl)piperidine-1-carboxamide] | – | + (+ represents myosin activation value AC20 > 5 μM) | – | – |
| Cn1nccc1NC(=O)N1CCC(C(C)(C)S(=O)(=O)c2cccc(F)c2)CC1 [Compound 136, 4-(2-((3-fluorophenyl)sulfonyl)propan-2-yl)-N-(1-methyl-1H-pyrazol-5-yl)piperidine-1-carboxamide] | – | + (+ represents myosin activation value AC20 > 5 μM) | – | – |
